Experimental data reported in paper PMC6030077, “Dual role of HDAC10 in lysosomal exocytosis and DNA repair promotes neuroblastoma chemoresistance” (Scientific Reports, 2018).

Legend:
[1] = test system: BE(2)-C cells; experiment: Flow cytometric analysis of LysoTracker DND-99 staining (lysosomal accumulation); type: cell-based, human; details: 24 h
Method: Six days after siRNA transfection or 24 h after treatment with HDAC or lysosomal inhibitors, cells were stained for 1 h with 50 nM LysoTracker® Red DND-99 in medium under standard cell culture conditions. Cells were washed with ice-cold RPMI w/o phenol-red and detached using Trypsin/EDTA for 3 minutes at 37 °C. Cells were centrifuged, resuspended in RPMI w/o phenol red and LysoTracker® Red fluorescence was quantified on a BD FACSCanto II platform using the PE filter setting.

[2] = test system: BE(2)-C cells; experiment: Alkaline single cell gel electrophoresis assay (comet assay); type: cell-based, human; details: 18 h
Method: BE(2)-C cells were treated with the HDAC6/10 inhibitor tubastatin A alone or in combination with the genotoxic drug doxorubicin (100 ng/ml doxorubicin, 7.5 µM tubastatin) for 18 h. Untreated cell aliquots and cells irradiated with 5 Gy (^137Cs radiation source, dose rate of 1 Gy min^−1) were used as negative and positive controls, respectively. Cells were subsequently analyzed by the alkaline comet assay as previously described[68],[69] with some modifications. In brief, the cells were mixed with 0.7% low-melting temperature agarose (Biozym), plated on two-well slides (Trevigen), and subsequently lysed overnight. Single cell electrophoresis was performed at 4 °C. Analysis of DNA damage was accomplished by fluorescence microscopy using a fully automated cell scanning system Metafer-4 (Metasystems) as described in[70]. DNA damage was assessed as “Tail DNA in %”. Statistical evaluation of two differently treated cell aliquots was performed with the Mann Whitney test using GraphPad Prism version 5.04 for Windows.

[3] = test system: HDAC6; experiment: Western blot analysis of tubulin K40 acetylation as a marker for HDAC6 inhibition; type: cell-based, human; details: 24 h; bufexamac 30 µM, tubastatin A 7.5 µM, tubacin 7.5 µM
Method: Western blot analysis was performed as previously described. The following antibodies were used: anti-HDAC6 (sc-11420, Santa Cruz), anti-HDAC10 (H3413, Sigma), anti-acetylated histone H3 (06-911, Merck Millipore), anti-histone H3 (9715, Cell Signaling Technology, Cambridge UK), anti-LAMP-1 (H4A3, DHSB, Iowa City, IA, USA), anti-LAMP-2 (H4B4; Santa Cruz Biotechnology), anti-acetylated tubulin (6–11B-1; Sigma), anti-tubulin (2148, Cell Signaling Technology), anti P-glycoprotein (13978 S, Cell Signaling Technology) and anti-β-actin (clone AC-15; Sigma).

[4] = test system: P-glycoprotein; experiment: Flow cytometric quantification of cell surface P-gp expression; type: cell-based, human; details: BE(2)-C; 6 h tubastatin A 7.5 µM; vacuolin-1 10 µM 1 h
Method: Cells were dissociated from dishes using non-enzymatic cell dissociation reagent for five minutes. Cells were counted using a ViCell XR automatic cell counter (Beckmann Coulter) and 2.5 ∗ 10^5 cells were transferred into a pre-cooled 96-well round bottom plate (TPP92097). Cells were stained for 1.5–2 hours on ice with primary anti P-gp (Biozol ABA-AB00143-1.1), LAMP-1 (H4A3, DHSB) antibody or isotype control (DLN-05794, Dianova, […]) and for 1 hour with APC-labeled secondary antibody (Dianova 115-136-068). Cells were washed three times in FACS buffer (5% FBS in PBS) after each antibody incubation step. For evaluation of DNA double-strand breaks, cells were detached from dishes using trypsin, counted using a ViCell XR automatic cell counter (Beckmann Coulter) and transferred into a pre-cooled 96-well round bottom plate (4 ∗ 10^6 cells/well). Cells were fixed and permeabilized using the eBioscience^TM Foxp3/Transcription Factor Staining Buffer Set (Thermo Fisher Scientific). Cells were stained for 1.5 h with Phospho-Histone H2A.X (S139) primary antibody (CST #9718) and for 1 h in Alexa-488-labeled secondary antibody (ThermoFisher A-11008). Cells were washed three times in 1× permeabilization buffer after each antibody incubation step and fluorescence was quantified on a BD FACSCanto II platform.

[5] = test system: proliferating human fibroblasts; experiment: Flow cytometric analysis of cellular doxorubicin fluorescence, fibroblasts; type: cell-based; details: 100 ng/ml doxorubicin 48 h; tubastatin A 7.5 µM, vacuolin-1 10 µM, verapamil 10 µM
[6] = test system: BE(2)-C cells; experiment: Colony formation assay; type: cell-based, human; details: treated for 24 h, 11 more days growth
Method: RNA isolation and real-time RT-PCR
RNA was isolated from neuroblastoma cell lines using the RNeasy MiniKit (Qiagen) according to
manufacturer's instructions. Real-time RT-PCR was performed as described in1. Data were normalized
to neuroblastoma housekeeping genes SDHA and […] and depicted as fold change relative to
negative control. The following primer pairs were used: HPRT (hypoxanthine
phosphoribosyltransferase 1, forward: 5′-[…]-3′ reverse: 5′-
-3′, ABCB1 (P-GP), forward: 5'-[…]-
3', reverse: 5'-[…]-3' , SDHA (succinate dehydrogenase complex,
subunit A, forward: 5′-[…]-3′, reverse: 5′-
BE(2)-C cells were seeded on 6-well plates at a density of 800 cells per well and treated as indicated
for 24 hours. After 24 hours, drugs were washed out and cells were allowed to grow for 11 more days
before staining of viable cell colonies with crystal violet (1 % crystal violet (w/v) in 70% ethanol). For
quantification, the plates were scanned, and colonies were counted in […] binary pictures with the
ITCN plugin for ImageJ software (U. S. National Institutes of Health, Bethesda, MD,
USA; http://imagej.nih.gov/ij/).

CN1CCc2c(c3ccccc3n2Cc2ccc(C(=O)NO)cc2)C1 [tubastatin A]
lysosomal accumulation (LysoTracker staining) ([1]; bufexamac 30 µM, tubastatin A 7.5 µM, tubacin 7.5 µM, VPA 1 mM, vacuolin-1 10 µM): caused lysosomal accumulation
lysosomal accumulation on combination with vacuolin-1 compared to vacuolin-1 alone ([1]; tubastatin A 7.5 µM + vacuolin-1 10 µM): no additional lysosomal accumulation
DSBs in comet assays, addition to doxorubicin treatment ([2]; tubastatin A 7.5 µM + doxorubicin 100 ng/ml): substantially increased doxorubicin induced DSBs
DSBs in comet assays, single treatment ([2]; tubastatin A 7.5 µM or doxorubicin 100 ng/ml): increased DSBs only trend-wise
HDAC6 inhibition (tubulin K40 acetylation) [3]: substantially inhibited HDAC6
cell surface P-gp levels [4]: slightly increased surface P-gp levels
intracellular doxorubicin in fibroblasts [5]: did not exhibit strongly increased intracellular doxorubicin
growth of BE(2)-C cells in colony assays, combination with doxorubicin [6]: effectively reduce growth
